Among the data in ChEMBL document CHEMBL1201862, “PubChem BioAssay data set” (2004) are IC50, AC50 and EC50 values, retold here.

Activity calls are given as the source filed them.

Assay [1] addresses Induced myeloid leukemia cell differentiation protein Mcl-1 (Homo sapiens, UniProt Q07820). The assay can be described thus: blockers of MCL1 binding to BIM peptide – biochemical, fluorescence polarization, BIM-BH3 peptide, 1536-well, dose response (AID 2217).
The target in the next assay is Large T antigen (Simian virus 40, UniProt P03070). Type of assay: functional, Betapolyomavirus macacae.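 Note: Confirmatory-stage PubChem screen for compounds that inhibit SV40 T antigen.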
Assay [2] deals with Alkaline phosphatase, placental type (Homo sapiens, UniProt P05187). Briefly: human placental alkaline phosphatase inhibition – biochemical, luminescence, confirmation (AID 1512). Type of assay: functional.
Assay [3] has as its target T1, Histone-lysine N-methyltransferase NSD2 (Homo sapiens, UniProt O96028).
T1 sequence (O96028 whole entry): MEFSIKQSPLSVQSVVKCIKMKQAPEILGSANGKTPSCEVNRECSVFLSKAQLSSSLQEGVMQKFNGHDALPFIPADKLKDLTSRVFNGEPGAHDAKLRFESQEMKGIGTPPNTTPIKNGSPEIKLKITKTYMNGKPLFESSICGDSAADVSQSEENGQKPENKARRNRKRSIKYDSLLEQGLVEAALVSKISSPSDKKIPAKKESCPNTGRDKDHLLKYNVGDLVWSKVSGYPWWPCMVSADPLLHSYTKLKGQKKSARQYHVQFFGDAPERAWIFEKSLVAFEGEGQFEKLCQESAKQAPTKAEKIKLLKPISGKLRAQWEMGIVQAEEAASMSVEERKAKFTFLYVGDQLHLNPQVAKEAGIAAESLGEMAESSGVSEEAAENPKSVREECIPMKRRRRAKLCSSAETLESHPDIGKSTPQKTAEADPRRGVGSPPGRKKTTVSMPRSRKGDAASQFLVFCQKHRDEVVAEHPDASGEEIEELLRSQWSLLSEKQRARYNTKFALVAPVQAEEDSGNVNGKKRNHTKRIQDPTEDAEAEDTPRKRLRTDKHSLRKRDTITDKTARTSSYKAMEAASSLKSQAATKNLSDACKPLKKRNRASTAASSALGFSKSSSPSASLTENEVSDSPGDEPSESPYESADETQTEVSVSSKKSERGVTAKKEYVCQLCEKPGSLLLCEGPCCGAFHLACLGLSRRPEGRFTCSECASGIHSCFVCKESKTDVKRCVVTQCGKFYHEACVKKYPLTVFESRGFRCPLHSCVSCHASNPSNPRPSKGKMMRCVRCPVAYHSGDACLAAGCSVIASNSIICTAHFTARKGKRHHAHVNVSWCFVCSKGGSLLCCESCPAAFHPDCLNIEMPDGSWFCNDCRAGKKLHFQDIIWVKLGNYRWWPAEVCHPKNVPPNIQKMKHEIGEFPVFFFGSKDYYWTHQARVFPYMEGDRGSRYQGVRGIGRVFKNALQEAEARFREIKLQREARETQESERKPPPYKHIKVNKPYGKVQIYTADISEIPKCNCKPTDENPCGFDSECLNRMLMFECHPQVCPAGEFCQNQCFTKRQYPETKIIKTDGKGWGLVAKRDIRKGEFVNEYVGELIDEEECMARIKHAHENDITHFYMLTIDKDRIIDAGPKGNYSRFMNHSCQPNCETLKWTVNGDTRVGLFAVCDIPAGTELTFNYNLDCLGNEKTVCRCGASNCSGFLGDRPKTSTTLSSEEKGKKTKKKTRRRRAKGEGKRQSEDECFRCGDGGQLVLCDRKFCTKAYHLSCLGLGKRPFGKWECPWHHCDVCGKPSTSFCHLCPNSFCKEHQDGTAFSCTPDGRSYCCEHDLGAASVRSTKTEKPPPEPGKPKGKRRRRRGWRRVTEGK
Type of assay: biochemical.

The target of the next assay is Bcl-2-like protein 1 (Homo sapiens, UniProt Q07817). The assay can be described thus: blockers of BCLXL peptide binding – biochemical, fluorescence polarization, 1536-well, selectivity assay for MCL1 inhibitor project, dose response (AID 2218).
Assay [4] concerns the target T2, Alkaline phosphatase, tissue-nonspecific isozyme (Homo sapiens, UniProt P05186).
T2 sequence (P05186 whole entry): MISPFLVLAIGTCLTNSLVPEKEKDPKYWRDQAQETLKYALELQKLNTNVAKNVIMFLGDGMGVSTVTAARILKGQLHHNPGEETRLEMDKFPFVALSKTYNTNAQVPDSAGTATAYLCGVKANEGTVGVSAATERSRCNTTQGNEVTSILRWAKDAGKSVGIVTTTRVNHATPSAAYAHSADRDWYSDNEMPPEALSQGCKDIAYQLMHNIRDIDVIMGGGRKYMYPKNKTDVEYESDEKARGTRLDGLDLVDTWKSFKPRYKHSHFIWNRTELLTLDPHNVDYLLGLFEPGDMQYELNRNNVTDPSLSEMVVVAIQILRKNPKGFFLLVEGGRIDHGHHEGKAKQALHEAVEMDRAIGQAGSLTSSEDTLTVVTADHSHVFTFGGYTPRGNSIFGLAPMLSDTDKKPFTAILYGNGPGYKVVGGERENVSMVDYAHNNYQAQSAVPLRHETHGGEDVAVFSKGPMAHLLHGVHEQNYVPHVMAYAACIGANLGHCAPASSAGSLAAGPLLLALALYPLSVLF
Briefly: potency against alkaline phosphatase TNAP – biochemical, luminescent, dose response, SAR follow-up (AID 1056).

In assay [5] the target is T3, Neuropeptide Y receptor type 2 (Homo sapiens, UniProt P49146).
T3 sequence (P49146 whole entry): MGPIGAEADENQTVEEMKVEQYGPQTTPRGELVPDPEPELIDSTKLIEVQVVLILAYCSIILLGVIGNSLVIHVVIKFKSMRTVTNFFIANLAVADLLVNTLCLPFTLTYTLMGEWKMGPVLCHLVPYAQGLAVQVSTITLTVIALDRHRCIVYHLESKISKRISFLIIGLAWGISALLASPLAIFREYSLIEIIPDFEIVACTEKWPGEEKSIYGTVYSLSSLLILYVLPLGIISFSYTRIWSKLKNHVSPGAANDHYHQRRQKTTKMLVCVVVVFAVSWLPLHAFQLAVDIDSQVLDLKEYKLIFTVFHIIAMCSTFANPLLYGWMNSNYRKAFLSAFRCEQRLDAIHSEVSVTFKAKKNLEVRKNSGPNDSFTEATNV
The assay can be described thus: IC50 for human NPY-Y2 blockade – cell-based, counter-screen for NPY-Y1 antagonist project, dose response (AID 1278). Type of assay: functional.

The target in assay [6] is T4, Neuropeptide Y receptor type 1 (Homo sapiens, UniProt P25929).
T4 sequence (P25929 whole entry): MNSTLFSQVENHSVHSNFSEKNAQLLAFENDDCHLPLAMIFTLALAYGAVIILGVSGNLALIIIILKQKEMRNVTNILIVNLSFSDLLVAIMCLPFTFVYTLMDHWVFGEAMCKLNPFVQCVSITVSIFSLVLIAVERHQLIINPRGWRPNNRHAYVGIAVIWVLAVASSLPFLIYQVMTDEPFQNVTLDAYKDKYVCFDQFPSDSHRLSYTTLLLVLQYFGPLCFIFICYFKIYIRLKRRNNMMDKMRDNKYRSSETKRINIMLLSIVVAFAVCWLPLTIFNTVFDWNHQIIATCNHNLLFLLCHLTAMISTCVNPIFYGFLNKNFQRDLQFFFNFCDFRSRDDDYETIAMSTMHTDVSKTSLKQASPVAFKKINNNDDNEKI
The assay can be described thus: IC50 of human NPY-Y1 blockers – cell-based, dose response (AID 1277). It is filed as functional.

Assay [7] has as its target Epstein-Barr nuclear antigen 1 (Epstein-Barr virus (strain B95-8) (HHV-4) (Human herpesvirus 4), UniProt P03211). The assay can be described thus: inhibition of EBV nuclear antigen 1 DNA binding – biochemical, fluorescence polarization, 1536-well, dose response (AID 2381).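 Note: fluorescence polarization of a Cy5 DNA probe bound by EBNA-1 protein.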 Further details: species or system human gammaherpesvirus 4.
In assay [8] the target is Lytic switch protein BZLF1 (Epstein-Barr virus (strain B95-8) (HHV-4) (Human herpesvirus 4), UniProt P03206). Briefly: inhibition of BZLF1 ZTA DNA binding – biochemical, fluorescence polarization, Epstein-Barr virus, 1536-well, counter-screen for EBNA-1 inhibitor project, dose response (AID 2377).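 Note: fluorescence polarization of Cy5-labelled ZRE DNA probe bound by purified Zta.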 Details: species or system human gammaherpesvirus 4.
In assay [9] the target is Sphingosine 1-phosphate receptor 2 (Homo sapiens, UniProt O95136). Briefly: Dose Response Cell Based Assay for Agonists of the S1P2 Receptor of Purchased Analogues. [Related pubchem assays: 729, 843, 854, 736 ]. It is filed as functional.
Sphingosine 1-phosphate receptor 2, sequence (O95136 whole entry): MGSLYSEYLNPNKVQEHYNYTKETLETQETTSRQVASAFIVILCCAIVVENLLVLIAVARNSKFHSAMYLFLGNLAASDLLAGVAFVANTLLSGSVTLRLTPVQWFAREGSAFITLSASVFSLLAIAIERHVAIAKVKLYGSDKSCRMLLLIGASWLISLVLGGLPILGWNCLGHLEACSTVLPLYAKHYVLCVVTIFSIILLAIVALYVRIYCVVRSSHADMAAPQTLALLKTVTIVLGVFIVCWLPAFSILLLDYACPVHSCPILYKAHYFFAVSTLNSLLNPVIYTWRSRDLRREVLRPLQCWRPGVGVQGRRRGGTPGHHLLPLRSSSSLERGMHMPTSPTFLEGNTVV

Epstein-Barr nuclear antigen 1, sequence (P03211 whole entry): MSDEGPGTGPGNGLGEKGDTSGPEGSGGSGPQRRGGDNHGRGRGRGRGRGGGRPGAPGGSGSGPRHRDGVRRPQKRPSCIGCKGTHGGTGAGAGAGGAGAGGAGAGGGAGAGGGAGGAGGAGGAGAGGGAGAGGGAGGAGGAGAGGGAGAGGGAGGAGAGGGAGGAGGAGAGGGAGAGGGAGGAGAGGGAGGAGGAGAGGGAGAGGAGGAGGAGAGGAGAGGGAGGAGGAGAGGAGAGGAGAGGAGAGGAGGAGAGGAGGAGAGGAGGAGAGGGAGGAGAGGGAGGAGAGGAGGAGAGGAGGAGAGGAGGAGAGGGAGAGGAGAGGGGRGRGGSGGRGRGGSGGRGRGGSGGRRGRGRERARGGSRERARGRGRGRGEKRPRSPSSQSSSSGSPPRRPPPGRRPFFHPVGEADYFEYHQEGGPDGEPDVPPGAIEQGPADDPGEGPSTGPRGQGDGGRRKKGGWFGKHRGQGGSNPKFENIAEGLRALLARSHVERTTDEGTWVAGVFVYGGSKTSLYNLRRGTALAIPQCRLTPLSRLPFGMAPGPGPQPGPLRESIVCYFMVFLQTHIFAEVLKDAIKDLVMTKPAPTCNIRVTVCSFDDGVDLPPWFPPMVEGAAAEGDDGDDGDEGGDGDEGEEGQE
Induced myeloid leukemia cell differentiation protein Mcl-1, sequence (Q07820 whole entry): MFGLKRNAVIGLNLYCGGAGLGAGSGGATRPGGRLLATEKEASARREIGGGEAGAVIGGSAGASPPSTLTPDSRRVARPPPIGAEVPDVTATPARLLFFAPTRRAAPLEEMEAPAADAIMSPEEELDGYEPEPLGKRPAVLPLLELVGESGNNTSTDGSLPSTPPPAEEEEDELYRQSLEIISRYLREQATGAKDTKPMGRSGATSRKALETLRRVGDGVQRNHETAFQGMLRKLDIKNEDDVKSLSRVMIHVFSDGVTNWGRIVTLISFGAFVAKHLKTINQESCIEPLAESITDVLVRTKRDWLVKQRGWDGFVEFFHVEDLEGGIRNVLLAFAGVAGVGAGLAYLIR
Bcl-2-like protein 1, sequence (Q07817 whole entry): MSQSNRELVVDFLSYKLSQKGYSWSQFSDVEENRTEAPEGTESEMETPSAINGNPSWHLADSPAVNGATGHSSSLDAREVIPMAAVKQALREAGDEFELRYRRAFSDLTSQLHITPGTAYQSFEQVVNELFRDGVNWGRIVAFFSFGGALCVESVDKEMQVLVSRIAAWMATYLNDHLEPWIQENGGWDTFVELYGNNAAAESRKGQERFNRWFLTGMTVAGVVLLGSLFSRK
Alkaline phosphatase, placental type, sequence (P05187 whole entry): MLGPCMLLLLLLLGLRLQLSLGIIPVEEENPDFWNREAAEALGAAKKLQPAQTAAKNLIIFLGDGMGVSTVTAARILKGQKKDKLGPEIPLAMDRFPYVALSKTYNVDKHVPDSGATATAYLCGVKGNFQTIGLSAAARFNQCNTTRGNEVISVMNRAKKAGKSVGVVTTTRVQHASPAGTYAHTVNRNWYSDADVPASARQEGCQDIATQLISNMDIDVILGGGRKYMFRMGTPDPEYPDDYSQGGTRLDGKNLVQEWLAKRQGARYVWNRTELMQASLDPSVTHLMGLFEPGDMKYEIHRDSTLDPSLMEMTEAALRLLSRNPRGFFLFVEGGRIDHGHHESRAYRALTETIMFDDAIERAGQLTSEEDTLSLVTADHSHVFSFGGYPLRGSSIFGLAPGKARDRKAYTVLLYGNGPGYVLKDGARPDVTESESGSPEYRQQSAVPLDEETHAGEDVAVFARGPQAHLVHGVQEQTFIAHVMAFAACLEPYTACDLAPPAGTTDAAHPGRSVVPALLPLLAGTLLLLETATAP
Lytic switch protein BZLF1, sequence (P03206 whole entry): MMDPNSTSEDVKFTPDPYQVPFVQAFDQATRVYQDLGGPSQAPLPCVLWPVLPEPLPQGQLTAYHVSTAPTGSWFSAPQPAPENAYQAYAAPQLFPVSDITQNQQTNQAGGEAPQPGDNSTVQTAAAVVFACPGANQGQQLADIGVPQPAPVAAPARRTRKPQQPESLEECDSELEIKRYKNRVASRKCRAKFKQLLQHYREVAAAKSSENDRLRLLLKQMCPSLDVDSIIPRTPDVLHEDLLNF
Large T antigen, sequence (P03070 whole entry): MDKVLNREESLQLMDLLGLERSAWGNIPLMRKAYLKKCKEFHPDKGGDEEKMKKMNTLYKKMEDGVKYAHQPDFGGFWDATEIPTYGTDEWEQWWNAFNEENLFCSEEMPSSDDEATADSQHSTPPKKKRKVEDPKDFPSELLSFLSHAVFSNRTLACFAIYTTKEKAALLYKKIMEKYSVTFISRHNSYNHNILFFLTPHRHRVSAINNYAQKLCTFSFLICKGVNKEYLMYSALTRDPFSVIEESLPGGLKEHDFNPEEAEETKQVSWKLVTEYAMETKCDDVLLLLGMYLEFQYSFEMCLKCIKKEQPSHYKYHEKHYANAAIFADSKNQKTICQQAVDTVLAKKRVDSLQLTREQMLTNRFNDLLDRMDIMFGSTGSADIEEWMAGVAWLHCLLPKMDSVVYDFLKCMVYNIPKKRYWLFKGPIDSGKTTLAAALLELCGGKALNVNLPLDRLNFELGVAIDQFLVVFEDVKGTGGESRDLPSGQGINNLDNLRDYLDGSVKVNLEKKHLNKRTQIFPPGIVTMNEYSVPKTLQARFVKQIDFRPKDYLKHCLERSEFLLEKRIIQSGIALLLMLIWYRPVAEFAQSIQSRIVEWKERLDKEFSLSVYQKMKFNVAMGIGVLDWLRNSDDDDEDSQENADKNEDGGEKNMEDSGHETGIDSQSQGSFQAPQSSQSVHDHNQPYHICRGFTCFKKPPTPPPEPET

Turning to `C=CCn1c(SCC(=O)c2ccc(O)c(O)c2)nnc1-c1cccnc1`, the half-maximal inhibitory concentration (IC50) in assay [1] is 9.37 µM (active); at Large T antigen, 14.5 µM (active); in assay [2], 2.92 µM (active); at Bcl-2-like protein 1, > 109 µM (not active); in assay [4], 22.2 µM (active). Further, in [3], the AC50 was 4.18 µM (active).

As to `COC(=O)[C@@]1(Cc2ccc(F)cc2)[C@H]2c3cc(C(=O)N4CCCC4)n(Cc4ccc(C(F)(F)F)nc4)c3C[C@H]2CN1C(=O)c1ccccc1`, the IC50 in [5] and in assay [6] was > 35 µM (not active) throughout.

`c1ccc(-c2ccc(C3=Nn4c(nnc4-c4cc(-c5ccccc5)[nH]n4)SC3)cc2)cc1`: the IC50 in assay [7] is 16.1 µM (not active); in [8], > 111 µM (not active).

`Cc1cc(C(=O)COC(=O)C2CCC2)c(C)n1Cc1ccccc1`: the EC50 in assay [9] is recorded as > 30 µM (not active).
